How the values were obtained:
Test in all cases: relative viability (nuclei count vs DMSO), 5 days (fraction); higher = more cells survive
CX-5461 + Lapatinib = compound: Cc1cnc(CNC(=O)c2c(=O)c3ccc(N4CCCN(C)CC4)nc3n3c2sc2ccccc23)cn1 [CX-5461] + CS(=O)(=O)CCNCc1ccc(-c2ccc3ncnc(Nc4ccc(OCc5cccc(F)c5)c(Cl)c4)c3c2)o1 [Lapatinib] (partner 2 µM)
Outline: (§1)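 After 5 days of treatment, lung cancer cells in 1536-well plates were fixed and stained in a single step (final 0.05% Triton X-100, 1% formaldehyde, 1 ug/ml Hoechst) and their nuclei counted on 4× images. Treatment had been applied by pin tool the day after seeding as one drug alone or as a fixed anchor-drug dose with five library-drug doses (not always all listed) in √10 steps. Relative viability is the nuclei count of treated wells divided by that of vehicle wells, and values are medians of duplicate plates.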

CX-5461 + Pictilisib = compound: Cc1cnc(CNC(=O)c2c(=O)c3ccc(N4CCCN(C)CC4)nc3n3c2sc2ccccc23)cn1 [CX-5461] + CS(=O)(=O)N1CCN(Cc2cc3nc(-c4cccc5[nH]ncc45)nc(N4CCOCC4)c3s2)CC1 [Pictilisib] (partner 1 µM)
Outline: as §1

IMD-0354 + Lapatinib = compound: O=C(Nc1cc(C(F)(F)F)cc(C(F)(F)F)c1)c1cc(Cl)ccc1O [IMD-0354] + CS(=O)(=O)CCNCc1ccc(-c2ccc3ncnc(Nc4ccc(OCc5cccc(F)c5)c(Cl)c4)c3c2)o1 [Lapatinib] (partner 2 µM)
Outline: as §1

IMD-0354 + Alpelisib = compound: O=C(Nc1cc(C(F)(F)F)cc(C(F)(F)F)c1)c1cc(Cl)ccc1O [IMD-0354] + Cc1nc(NC(=O)N2CCC[C@H]2C(N)=O)sc1-c1ccnc(C(C)(C)C(F)(F)F)c1 [Alpelisib] (partner 2 µM)
Outline: as §1

Row | Cell Line | relative viability (CX-5461 + Lapatinib; first compound 0.01 µM) | relative viability (CX-5461 + Lapatinib; first compound 0.03162 µM) | relative viability (CX-5461 + Lapatinib; first compound 0.1 µM) | relative viability (CX-5461 + Lapatinib; first compound 1 µM) | relative viability (CX-5461 + Pictilisib; first compound 0.01 µM) | relative viability (CX-5461 + Pictilisib; first compound 0.03162 µM) | relative viability (CX-5461 + Pictilisib; first compound 0.1 µM) | relative viability (CX-5461 + Pictilisib; first compound 1 µM) | relative viability (IMD-0354 + Lapatinib; first compound 0.04 µM) | relative viability (IMD-0354 + Lapatinib; first compound 0.1265 µM) | relative viability (IMD-0354 + Lapatinib; first compound 1.265 µM) | relative viability (IMD-0354 + Lapatinib; first compound 4 µM) | relative viability (IMD-0354 + Alpelisib; first compound 0.04 µM) | relative viability (IMD-0354 + Alpelisib; first compound 0.1265 µM) | relative viability (IMD-0354 + Alpelisib; first compound 1.265 µM) | relative viability (IMD-0354 + Alpelisib; first compound 4 µM) | relative viability (CX-5461 + Lapatinib; first compound 0.3162 µM) | relative viability (CX-5461 + Pictilisib; first compound 0.3162 µM) | relative viability (IMD-0354 + Lapatinib; first compound 0.4 µM) | relative viability (IMD-0354 + Alpelisib; first compound 0.4 µM)
1 | EKVX | 0.228 | 0.206 | 0.196 | 0.198 | 0.47 | 0.447 | 0.429 | 0.389 | 0.406 | 0.203 | 0.128 | 0.134 | 0.931 | 0.992 | 0.73 | 0.179 | – | – | – | –
2 | NCI-H2087 | 1.13 | 1.18 | 1.18 | 0.507 | 0.887 | 1.02 | 1.07 | 0.716 | 0.872 | 0.991 | 0.137 | 0.178 | 1.04 | 0.938 | 0.136 | 0.131 | 0.407 | 0.282 | 0.419 | 0.329
3 | NCI-H1395 | 0.955 | 0.899 | 0.716 | 0.563 | 0.568 | 0.576 | 0.914 | 0.395 | 1.11 | 1.28 | 0.292 | 0.364 | 0.992 | 0.889 | 0.465 | 0.324 | 0.571 | 0.447 | 0.821 | 0.98
4 | NCI-H1437 | 0.779 | 0.869 | – | 0.528 | 0.381 | 0.471 | – | 0.382 | 0.86 | 0.69 | 0.122 | 0.194 | 1.24 | 1.07 | 0.219 | 0.239 | 0.519 | 0.408 | 0.317 | 0.711
5 | COR-L23 | 1.08 | 0.833 | 0.674 | 0.414 | 0.811 | 1.15 | 0.656 | 0.443 | 1.09 | 0.831 | 0.117 | 0.172 | 0.728 | 0.776 | 0.136 | 0.164 | 0.804 | 0.65 | 0.439 | 0.427
6 | ABC-1 | 1.17 | 1.32 | 1.04 | 1.05 | 0.792 | 1 | – | 0.573 | 1.31 | 1.15 | 1.17 | 0.612 | 1.15 | 1.1 | 0.375 | 0.252 | – | 0.289 | – | 0.887
7 | NCI-H838 | 1.17 | 1.11 | 1.05 | 0.6 | 0.457 | 0.473 | 0.5 | 0.325 | 1.14 | 0.855 | 0.305 | 0.261 | 1.19 | 1.06 | 0.615 | 0.331 | 0.252 | 0.474 | 0.399 | 0.445
8 | A549 | 0.989 | 1.04 | 0.698 | 0.0911 | 0.555 | 0.525 | – | 0.0627 | 1.19 | 1.04 | 0.101 | 0.105 | 0.776 | 0.695 | 0.0677 | 0.0557 | 0.867 | 0.472 | 0.245 | 0.509
9 | A-427 | 1.06 | 0.999 | 1.04 | 0.908 | 0.78 | 0.868 | 0.732 | 0.584 | 1.12 | 1.02 | 0.618 | 0.105 | 1.04 | 1.13 | 0.69 | 0.104 | – | – | 0.678 | 0.815
10 | NCI-H1792 | 0.919 | 1.08 | 0.923 | 0.788 | 0.294 | 0.296 | 0.277 | 0.281 | 0.827 | 0.967 | 0.479 | 0.299 | 0.822 | 0.506 | 0.677 | 0.336 | 0.85 | 0.276 | 0.833 | 0.874
11 | LCLC-97TM1 | 1.17 | 1.02 | 0.871 | 0.366 | 0.179 | 0.172 | 0.188 | 0.204 | – | 0.792 | 0.27 | 0.144 | – | 0.272 | 0.207 | 0.113 | – | – | 0.419 | 0.245
12 | NCI-H1703 | 1.2 | 1.45 | 1.1 | 0.502 | 0.258 | 0.243 | 0.239 | 0.221 | 0.936 | 1.03 | 0.202 | 0.21 | 0.312 | 0.269 | 0.179 | 0.121 | 1.14 | 0.284 | 0.475 | 0.282
13 | PC-3 [JPC-3] | 0.453 | 0.443 | 0.464 | 0.473 | 0.82 | 0.857 | 0.829 | 0.75 | 0.484 | 0.434 | 0.42 | 0.199 | 1.1 | 1.04 | 0.774 | 0.183 | 0.421 | 0.697 | 0.372 | 0.714
14 | BEN | 0.77 | 0.647 | 0.821 | 0.54 | 0.662 | 0.573 | 0.6 | 0.534 | 0.601 | 0.878 | 0.266 | 0.229 | 1.11 | 0.915 | 0.442 | 0.245 | 0.487 | 0.543 | 0.373 | 0.498
15 | NCI-H1666 | 0.733 | 0.637 | – | 0.398 | 0.375 | 0.533 | – | 0.349 | 0.631 | 0.617 | 0.176 | 0.167 | 0.982 | 0.961 | 0.208 | 0.196 | 0.55 | 0.337 | 0.452 | 0.966
16 | LC-2-ad | 0.971 | 1.02 | 0.816 | 0.476 | 0.431 | 0.51 | 0.516 | 0.334 | 0.947 | 0.924 | 0.192 | 0.116 | 0.979 | 0.835 | 0.106 | 0.115 | 0.685 | 0.502 | 0.354 | 0.397
17 | SW 1573 | 1.2 | 1.26 | 0.989 | 0.546 | 0.56 | 0.471 | 0.461 | 0.452 | 1.07 | 1.25 | 0.628 | 0.14 | 0.768 | 0.788 | 0.202 | 0.15 | 0.691 | 0.59 | 0.362 | 0.328

From the supplement of paper PMC10307832
